This is an account of results in paper PMC3961306, “Comparison of the Cancer Gene Targeting and Biochemical Selectivities of All Targeted Kinase Inhibitors Approved for Clinical Use” (PLoS ONE, 2014).

What all share (experiment): Kinase profiling in a biochemical assay panel (mobility shift assays and ELISA), %-inhibition at 1 μM; selectivity entropy
Background: An ELISA detects its analyte on a solid surface through an enzyme-linked reagent.

Assay [1] concerns the target panel of more than 300 wild-type and mutant kinases (313 kinase panel) (Homo sapiens, UniProt Q9UM73, F1174L). The settings on record: kinase ALK(F1174L); 1 μM compound.
Assay [2] concerns the target T1, panel of more than 300 wild-type and mutant kinases (313 kinase panel) (Homo sapiens, UniProt P36888).
T1 sequence (P36888 27-993): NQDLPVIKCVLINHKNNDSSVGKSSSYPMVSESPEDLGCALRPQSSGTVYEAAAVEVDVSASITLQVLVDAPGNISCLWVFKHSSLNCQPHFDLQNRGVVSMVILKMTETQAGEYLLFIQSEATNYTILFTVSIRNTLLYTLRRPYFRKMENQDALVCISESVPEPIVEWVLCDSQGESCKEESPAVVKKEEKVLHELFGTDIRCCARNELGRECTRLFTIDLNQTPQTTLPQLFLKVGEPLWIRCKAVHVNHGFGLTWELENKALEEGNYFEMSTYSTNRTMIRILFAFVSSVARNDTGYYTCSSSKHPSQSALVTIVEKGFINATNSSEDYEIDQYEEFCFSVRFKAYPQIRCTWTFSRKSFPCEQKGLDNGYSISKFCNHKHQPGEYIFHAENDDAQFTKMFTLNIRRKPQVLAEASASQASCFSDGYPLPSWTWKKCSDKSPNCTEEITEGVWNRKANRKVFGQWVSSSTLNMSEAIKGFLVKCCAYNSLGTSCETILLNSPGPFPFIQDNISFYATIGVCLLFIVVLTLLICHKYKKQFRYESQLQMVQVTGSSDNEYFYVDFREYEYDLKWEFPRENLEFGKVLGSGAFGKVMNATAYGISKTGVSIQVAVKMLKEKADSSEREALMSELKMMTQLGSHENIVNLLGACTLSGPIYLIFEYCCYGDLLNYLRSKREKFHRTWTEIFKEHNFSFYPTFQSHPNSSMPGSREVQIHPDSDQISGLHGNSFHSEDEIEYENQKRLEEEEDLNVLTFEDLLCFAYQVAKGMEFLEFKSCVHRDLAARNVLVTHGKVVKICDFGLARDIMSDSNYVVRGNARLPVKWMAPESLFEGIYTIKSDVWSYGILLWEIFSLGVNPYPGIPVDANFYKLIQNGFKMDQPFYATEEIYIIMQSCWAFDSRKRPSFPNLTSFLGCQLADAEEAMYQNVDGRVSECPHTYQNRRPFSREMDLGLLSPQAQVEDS

Assay [3] concerns the target panel of more than 300 wild-type and mutant kinases (313 kinase panel) (Homo sapiens, UniProt Q9Y6E0). The settings on record: kinase MST3; 1 μM.
The target in assay [4] is panel of more than 300 wild-type and mutant kinases (313 kinase panel) (Homo sapiens, UniProt P10721).
Assay [5] concerns the target panel of more than 300 wild-type and mutant kinases (313 kinase panel) (Homo sapiens, UniProt P17252). The settings on record: kinase PKCα; 1 μM.
Assay [6] concerns the target T2, panel of more than 300 wild-type and mutant kinases (313 kinase panel) (Homo sapiens, UniProt P29322).
T2 sequence (P29322 28-1005): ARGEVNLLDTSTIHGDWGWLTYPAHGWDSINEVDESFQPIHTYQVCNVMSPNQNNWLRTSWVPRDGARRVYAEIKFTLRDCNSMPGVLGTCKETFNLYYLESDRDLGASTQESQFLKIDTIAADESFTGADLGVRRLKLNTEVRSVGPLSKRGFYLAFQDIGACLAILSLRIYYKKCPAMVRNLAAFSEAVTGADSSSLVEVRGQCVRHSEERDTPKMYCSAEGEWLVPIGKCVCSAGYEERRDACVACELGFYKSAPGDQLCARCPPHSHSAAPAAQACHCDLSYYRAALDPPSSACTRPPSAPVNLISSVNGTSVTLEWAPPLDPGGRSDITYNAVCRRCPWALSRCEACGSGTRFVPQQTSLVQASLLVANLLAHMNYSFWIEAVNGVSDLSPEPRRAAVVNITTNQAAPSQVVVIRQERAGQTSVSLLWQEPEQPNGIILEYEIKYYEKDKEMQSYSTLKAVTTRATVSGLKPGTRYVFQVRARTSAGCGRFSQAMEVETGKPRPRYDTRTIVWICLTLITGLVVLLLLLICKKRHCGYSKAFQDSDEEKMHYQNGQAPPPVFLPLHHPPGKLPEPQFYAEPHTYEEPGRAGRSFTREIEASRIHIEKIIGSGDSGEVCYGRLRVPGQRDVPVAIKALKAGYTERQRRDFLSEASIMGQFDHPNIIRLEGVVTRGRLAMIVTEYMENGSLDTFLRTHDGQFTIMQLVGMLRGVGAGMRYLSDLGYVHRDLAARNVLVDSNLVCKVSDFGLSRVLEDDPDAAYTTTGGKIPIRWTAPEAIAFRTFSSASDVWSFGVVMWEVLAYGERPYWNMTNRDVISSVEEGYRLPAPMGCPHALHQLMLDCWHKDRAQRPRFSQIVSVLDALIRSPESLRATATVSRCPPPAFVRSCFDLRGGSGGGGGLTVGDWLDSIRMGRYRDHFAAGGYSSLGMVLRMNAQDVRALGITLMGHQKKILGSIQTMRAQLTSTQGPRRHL
The settings on record: kinase EPHA8; compound at 1 μM.

For assay [7], the target named is panel of more than 300 wild-type and mutant kinases (313 kinase panel) (Homo sapiens, UniProt P22607, K650E). The settings on record: kinase FGFR3(K650E); compound at 1 μM.
Assay [8] concerns the target panel of more than 300 wild-type and mutant kinases (313 kinase panel) (Homo sapiens, UniProt P51957). The following applies: kinase NEK4; 1 μM.
The target of assay [9] is panel of more than 300 wild-type and mutant kinases (313 kinase panel) (Homo sapiens, UniProt P31751). The settings on record: kinase AKT2; 1 μM compound.

Turning to `CC(=O)Nc1cccc(-n2c(=O)n(C3CC3)c(=O)c3c(Nc4ccc(I)cc4F)n(C)c(=O)c(C)c32)c1` [trametinib], the “%-inhibition, ALK(F1174L)” value in assay [1] is reported as -7%. Further, in [2] (kinase FLT3, compound at 1 μM), the “%-inhibition of FLT3” value is listed as 20%. For the same molecule, the “%-inhibition of MST3” value in [3] was 1.75%. For the same molecule, the “%-inhibition of KIT” value in assay [4] (kinase KIT, compound at 1 μM) is -0.648%. In assay [5], the “%-inhibition of PKCα” value is recorded as -5%. In addition, the “%-inhibition of EPHA8” value in assay [6] is recorded as -8%. Further, in assay [7], the “%-inhibition of FGFR3(K650E)” value is given as -1.07%. In addition, the “%-inhibition of NEK4” value in assay [8] amounted to 2%. Also, in assay [9], the “%-inhibition, AKT2” value is -8%.

Take `COc1cc2nccc(Oc3ccc(NC(=O)C4(C(=O)Nc5ccc(F)cc5)CC4)cc3)c2cc1OC` [cabozantinib]: the “%-inhibition, ALK(F1174L)” value in [1] came to 6.54%. Further, the “%-inhibition of FLT3” value in assay [2] (kinase FLT3, compound at 1 μM) stood at 91%. Also, the “%-inhibition of MST3” value in assay [3] was found to be 0.432%. Also, in assay [4] (kinase KIT, compound at 1 μM), the “%-inhibition of KIT” value is on record as 97%. Also, the “%-inhibition of PKCα” value in [5] is listed as -8.47%. Further, the “%-inhibition of EPHA8” value in [6] was found to be 98%. For the same molecule, the “%-inhibition of FGFR3(K650E)” value in [7] is given as 26%. Besides, in [8], the “%-inhibition of NEK4” value is 16%. The “%-inhibition, AKT2” value in [9] is -3.78%.

On to `CCCS(=O)(=O)Nc1ccc(F)c(C(=O)c2c[nH]c3ncc(-c4ccc(Cl)cc4)cc23)c1F` [vemurafenib], for which the “%-inhibition, ALK(F1174L)” value in assay [1] is given as -1.36%. Besides, the “%-inhibition of FLT3” value in [2] (kinase FLT3, compound at 1 μM) came out at 10%. Moreover, the “%-inhibition of MST3” value in [3] is -1.73%. For the same molecule, in [4] (kinase KIT, compound at 1 μM), the “%-inhibition of KIT” value is reported as 58%. Further, the “%-inhibition of PKCα” value in assay [5] was -3.61%. In [6], the “%-inhibition of EPHA8” value is 7%. Moreover, the “%-inhibition of FGFR3(K650E)” value in [7] was 6.55%. The “%-inhibition of NEK4” value in assay [8] is reported as -0.416%. In addition, in assay [9], the “%-inhibition, AKT2” value is given as -3%.

For the molecule `CNC(=O)c1cc(Oc2ccc(NC(=O)Nc3ccc(Cl)c(C(F)(F)F)c3)c(F)c2)ccn1` [regorafenib], the “%-inhibition, ALK(F1174L)” value in [1] is -7.49%. Further, in [2] (kinase FLT3, compound at 1 μM), the “%-inhibition of FLT3” value is reported as 68%. In addition, the “%-inhibition of MST3” value in [3] is -6.62%. Also, in assay [4] (kinase KIT, compound at 1 μM), the “%-inhibition of KIT” value was determined as 100%. The “%-inhibition of PKCα” value in assay [5] is -11%. Besides, in [6], the “%-inhibition of EPHA8” value worked out at 95%. In addition, the “%-inhibition of FGFR3(K650E)” value in assay [7] amounted to 99%. The “%-inhibition of NEK4” value in assay [8] is on record as -4%. In addition, the “%-inhibition, AKT2” value in assay [9] is on record as -4%.

In the case of `CO[C@H]1C[C@@H]2CC[C@@H](C)[C@@](O)(O2)C(=O)C(=O)N2CCCC[C@H]2C(=O)O[C@H]([C@H](C)C[C@@H]2CC[C@@H](OC(=O)C(C)(CO)CO)[C@H](OC)C2)CC(=O)[C@H](C)/C=C(\C)[C@@H](O)[C@@H](OC)C(=O)[C@H](C)C[C@H](C)/C=C/C=C/C=C/1C` [temsirolimus], the “%-inhibition, ALK(F1174L)” value in assay [1] is listed as -6%. In addition, the “%-inhibition of FLT3” value in assay [2] (kinase FLT3, compound at 1 μM) was found to be 5%. Further, the “%-inhibition of MST3” value in assay [3] is -3.6%. In [4] (kinase KIT, compound at 1 μM), the “%-inhibition of KIT” value is given as -8%. In assay [5], the “%-inhibition of PKCα” value was -6%. Besides, in assay [6], the “%-inhibition of EPHA8” value is listed as -6.55%. Also, in assay [7], the “%-inhibition of FGFR3(K650E)” value is on record as -2.55%. Also, the “%-inhibition of NEK4” value in assay [8] was 0.416%. The “%-inhibition, AKT2” value in assay [9] is -1.77%.

As for `Cc1cn(-c2cc(NC(=O)c3ccc(C)c(Nc4nccc(-c5cccnc5)n4)c3)cc(C(F)(F)F)c2)cn1` [nilotinib], in assay [1], the “%-inhibition, ALK(F1174L)” value is recorded as -45%. For the same molecule, the “%-inhibition of FLT3” value in assay [2] (1 µM) is 60%. Further, the “%-inhibition of MST3” value in [3] worked out at 0.797%. The “%-inhibition of KIT” value in assay [4] (1 µM) was 96%. Also, the “%-inhibition of PKCα” value in assay [5] amounted to 6.55%. The “%-inhibition of EPHA8” value in assay [6] came to 98%. Further, the “%-inhibition of FGFR3(K650E)” value in assay [7] is -37%. Moreover, the “%-inhibition of NEK4” value in assay [8] was -22%. Further, the “%-inhibition, AKT2” value in assay [9] stood at 12%.
